Measured values: publication PMC11542607 (RSC Advances, 2024)

Experiments:
[1] = system: WI-38 normal fibroblast cell line; assay: Cytotoxicity towards normal human cells; assay type: cell-based; details: WI-38, read-out: IC50 WI-38
[2] = system: HeLa (cervical epithelioid carcinoma); assay: MTT cytotoxicity assay, HeLa; assay type: cell-based; details: Homo sapiens, read-out: IC50 HeLa
[3] = system: HCT116 (colorectal carcinoma); assay: MTT cytotoxicity assay, HCT-116; assay type: cell-based; details: Homo sapiens, HCT-116, read-out: IC50 HCT-116
MCF-7 (breast cancer) = assay: MTT cytotoxicity assay, MCF-7; assay type: cell-based; details: Homo sapiens, MCF7, read-out: IC50 MCF-7
MCF-7 cells = assay: Flow cytometry cell cycle analysis; assay type: cell-based, human
HER-2 = HER-2 (Homo sapiens, UniProt P04626); assay: biochemical
caspase-3 = assay: Caspase-3 immunostaining of mammary tissue in DMBA model; assay type: in vivo, mice; details: for caspase-3 positive cells: immunostaining, mean ± standard error (n = 5), control 4.5 ± 0.2, DMBA 0.5 ± 0.1
aromatase (ARO) = target: T1, aromatase (ARO) (Homo sapiens, UniProt P11511); assay: Aromatase enzyme inhibition assay; assay type: biochemical
T1 sequence (P11511 1-503): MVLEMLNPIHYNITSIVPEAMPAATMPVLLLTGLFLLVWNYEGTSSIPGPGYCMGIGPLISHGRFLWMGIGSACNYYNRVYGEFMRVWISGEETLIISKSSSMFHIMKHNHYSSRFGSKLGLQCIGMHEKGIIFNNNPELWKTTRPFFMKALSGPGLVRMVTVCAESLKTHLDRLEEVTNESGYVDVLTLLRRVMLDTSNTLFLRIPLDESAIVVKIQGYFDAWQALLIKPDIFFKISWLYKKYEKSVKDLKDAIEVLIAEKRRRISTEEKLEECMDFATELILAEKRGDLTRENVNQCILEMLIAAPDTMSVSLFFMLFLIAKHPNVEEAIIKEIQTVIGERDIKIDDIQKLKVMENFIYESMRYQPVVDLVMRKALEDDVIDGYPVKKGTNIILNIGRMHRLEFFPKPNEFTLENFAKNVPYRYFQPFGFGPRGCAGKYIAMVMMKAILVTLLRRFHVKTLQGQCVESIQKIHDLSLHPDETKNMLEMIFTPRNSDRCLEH

EGFR = EGFR (Homo sapiens, UniProt P00533); assay: EGFR enzyme inhibition assay; assay type: biochemical
[4] = Body weight in DMBA-induced breast cancer model; assay type: in vivo; details: DMBA model mice; for Body weight at day 20: control 28.91 g, DMBA 35.2 g; for Body weight at start: start of 20 days period, control 20.51 g, DMBA 18.8 g
[5] = system: DMBA-induced breast cancer; assay: In vivo DMBA-induced breast cancer model; parameters: species or system mice; details: day 20; for Final tumor volume: untreated DMBA group approximately 2.4 mm^3
TOP-II = TOP-II (Homo sapiens, UniProt P11388); assay: TOP-II enzyme inhibition assay; assay type: biochemical
Chain of TOP-II (P11388 whole entry): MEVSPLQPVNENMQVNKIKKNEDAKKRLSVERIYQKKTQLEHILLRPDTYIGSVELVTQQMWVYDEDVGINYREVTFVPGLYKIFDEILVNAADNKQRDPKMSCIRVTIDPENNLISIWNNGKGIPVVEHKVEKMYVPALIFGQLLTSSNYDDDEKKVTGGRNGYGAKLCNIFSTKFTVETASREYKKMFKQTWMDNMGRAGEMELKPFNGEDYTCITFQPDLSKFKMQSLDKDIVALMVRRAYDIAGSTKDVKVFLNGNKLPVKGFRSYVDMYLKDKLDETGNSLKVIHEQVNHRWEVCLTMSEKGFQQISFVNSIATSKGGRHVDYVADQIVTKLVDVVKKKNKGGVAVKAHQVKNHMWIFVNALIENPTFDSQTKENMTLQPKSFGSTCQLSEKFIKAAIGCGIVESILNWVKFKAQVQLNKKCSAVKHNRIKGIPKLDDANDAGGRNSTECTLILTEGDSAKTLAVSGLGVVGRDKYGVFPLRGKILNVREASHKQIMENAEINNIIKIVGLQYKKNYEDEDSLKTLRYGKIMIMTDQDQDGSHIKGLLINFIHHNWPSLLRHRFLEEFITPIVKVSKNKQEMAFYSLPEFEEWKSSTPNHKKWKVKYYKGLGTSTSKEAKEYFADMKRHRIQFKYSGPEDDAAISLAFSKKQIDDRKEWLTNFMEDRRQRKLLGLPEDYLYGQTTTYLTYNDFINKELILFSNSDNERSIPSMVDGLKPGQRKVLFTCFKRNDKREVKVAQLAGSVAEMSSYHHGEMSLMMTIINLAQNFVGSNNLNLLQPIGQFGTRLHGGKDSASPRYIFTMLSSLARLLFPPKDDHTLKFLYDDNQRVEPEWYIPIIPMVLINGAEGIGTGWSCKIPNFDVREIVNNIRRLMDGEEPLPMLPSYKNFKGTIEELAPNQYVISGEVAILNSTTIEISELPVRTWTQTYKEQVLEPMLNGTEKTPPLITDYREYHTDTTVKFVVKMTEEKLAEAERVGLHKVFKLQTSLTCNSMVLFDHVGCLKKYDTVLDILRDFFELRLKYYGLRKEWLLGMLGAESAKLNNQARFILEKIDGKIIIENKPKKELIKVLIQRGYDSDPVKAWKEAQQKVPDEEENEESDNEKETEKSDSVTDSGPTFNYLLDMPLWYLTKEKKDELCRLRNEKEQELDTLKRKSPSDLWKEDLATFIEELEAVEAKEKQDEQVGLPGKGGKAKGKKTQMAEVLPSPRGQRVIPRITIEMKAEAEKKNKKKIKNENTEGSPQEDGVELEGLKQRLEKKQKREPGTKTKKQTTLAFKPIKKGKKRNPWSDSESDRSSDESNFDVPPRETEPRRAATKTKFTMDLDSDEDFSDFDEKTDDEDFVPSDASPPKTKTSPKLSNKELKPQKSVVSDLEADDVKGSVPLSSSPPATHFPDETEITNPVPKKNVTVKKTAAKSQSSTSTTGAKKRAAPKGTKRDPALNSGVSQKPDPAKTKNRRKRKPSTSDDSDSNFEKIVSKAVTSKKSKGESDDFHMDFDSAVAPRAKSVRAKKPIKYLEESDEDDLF

Chain of HER-2 (P04626 23-1255): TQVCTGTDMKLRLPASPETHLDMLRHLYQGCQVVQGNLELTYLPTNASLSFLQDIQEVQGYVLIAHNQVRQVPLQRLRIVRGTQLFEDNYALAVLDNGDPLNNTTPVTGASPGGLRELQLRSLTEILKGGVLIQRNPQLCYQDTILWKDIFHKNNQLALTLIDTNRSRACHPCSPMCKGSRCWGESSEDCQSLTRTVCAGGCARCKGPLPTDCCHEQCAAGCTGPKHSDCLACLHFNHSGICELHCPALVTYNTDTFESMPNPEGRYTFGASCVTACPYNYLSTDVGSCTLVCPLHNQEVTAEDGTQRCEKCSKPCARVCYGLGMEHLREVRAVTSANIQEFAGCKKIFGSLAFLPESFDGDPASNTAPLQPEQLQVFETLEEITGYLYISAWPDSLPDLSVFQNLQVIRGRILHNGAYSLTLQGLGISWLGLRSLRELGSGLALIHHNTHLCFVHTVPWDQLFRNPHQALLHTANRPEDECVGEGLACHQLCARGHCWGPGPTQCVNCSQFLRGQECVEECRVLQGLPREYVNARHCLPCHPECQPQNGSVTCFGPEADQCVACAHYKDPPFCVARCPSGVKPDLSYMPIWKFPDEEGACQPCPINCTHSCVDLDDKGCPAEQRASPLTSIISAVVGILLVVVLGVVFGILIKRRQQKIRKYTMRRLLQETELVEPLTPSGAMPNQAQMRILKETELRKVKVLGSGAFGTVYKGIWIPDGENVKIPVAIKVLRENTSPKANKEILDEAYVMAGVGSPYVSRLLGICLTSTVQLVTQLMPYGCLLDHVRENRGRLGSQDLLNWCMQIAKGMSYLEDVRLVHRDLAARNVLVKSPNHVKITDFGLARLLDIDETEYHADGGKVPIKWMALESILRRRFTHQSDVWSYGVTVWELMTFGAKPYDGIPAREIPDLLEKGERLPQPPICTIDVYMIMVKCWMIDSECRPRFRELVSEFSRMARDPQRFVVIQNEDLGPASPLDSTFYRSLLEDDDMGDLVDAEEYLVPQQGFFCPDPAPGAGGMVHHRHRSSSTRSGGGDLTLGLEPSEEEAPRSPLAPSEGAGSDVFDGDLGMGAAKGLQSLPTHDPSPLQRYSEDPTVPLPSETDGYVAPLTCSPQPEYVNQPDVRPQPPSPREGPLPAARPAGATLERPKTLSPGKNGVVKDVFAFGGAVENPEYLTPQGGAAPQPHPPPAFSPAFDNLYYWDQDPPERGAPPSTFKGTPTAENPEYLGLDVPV
Chain of EGFR (P00533 25-1210): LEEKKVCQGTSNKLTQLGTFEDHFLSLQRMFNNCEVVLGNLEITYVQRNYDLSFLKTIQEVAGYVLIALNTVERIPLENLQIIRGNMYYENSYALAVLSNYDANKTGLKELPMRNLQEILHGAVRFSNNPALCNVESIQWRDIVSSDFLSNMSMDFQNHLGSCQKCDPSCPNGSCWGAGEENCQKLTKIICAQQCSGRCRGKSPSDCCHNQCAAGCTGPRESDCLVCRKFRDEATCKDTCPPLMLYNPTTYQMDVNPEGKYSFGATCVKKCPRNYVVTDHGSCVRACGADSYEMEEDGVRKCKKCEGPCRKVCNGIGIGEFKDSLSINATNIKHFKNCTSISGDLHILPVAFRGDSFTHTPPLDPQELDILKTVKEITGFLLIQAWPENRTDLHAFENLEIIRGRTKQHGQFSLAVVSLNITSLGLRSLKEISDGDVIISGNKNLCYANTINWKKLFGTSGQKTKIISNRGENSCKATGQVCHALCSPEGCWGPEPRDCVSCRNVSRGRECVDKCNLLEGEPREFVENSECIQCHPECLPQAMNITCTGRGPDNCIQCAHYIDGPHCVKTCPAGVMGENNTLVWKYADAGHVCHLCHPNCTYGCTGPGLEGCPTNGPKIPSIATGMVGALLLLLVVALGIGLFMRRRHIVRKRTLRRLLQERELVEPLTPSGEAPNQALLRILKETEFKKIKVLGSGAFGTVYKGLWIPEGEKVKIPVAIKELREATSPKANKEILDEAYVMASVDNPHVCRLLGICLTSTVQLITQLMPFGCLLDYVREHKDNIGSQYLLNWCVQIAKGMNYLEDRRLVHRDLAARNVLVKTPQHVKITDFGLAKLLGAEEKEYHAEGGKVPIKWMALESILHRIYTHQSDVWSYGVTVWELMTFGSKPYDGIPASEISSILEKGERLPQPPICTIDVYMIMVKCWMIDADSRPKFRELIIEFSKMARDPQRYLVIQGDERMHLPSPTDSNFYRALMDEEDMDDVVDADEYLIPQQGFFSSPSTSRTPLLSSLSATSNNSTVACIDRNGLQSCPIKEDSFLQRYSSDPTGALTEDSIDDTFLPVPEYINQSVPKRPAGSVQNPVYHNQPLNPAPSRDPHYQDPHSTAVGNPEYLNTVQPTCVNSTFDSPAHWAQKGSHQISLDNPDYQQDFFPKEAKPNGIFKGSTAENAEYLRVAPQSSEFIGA

| Structure (SMILES) | IC50 [1] [µM] | IC50 [2] [µM] | IC50 [3] [µM] | IC50 (MCF-7 (breast cancer)) [µM] | other results |
| --- | --- | --- | --- | --- | --- |
| Cc1cc(Sc2nc(-c3cccc(Br)c3)c(C#N)c(=O)[nH]2)n2ncnc2n1 [Compound 11f, 4-(3-Bromophenyl)-2-((5-methyl-[1,2,4]triazolo[1,5-a]pyrimidin-7-yl)thio)-6-oxo-1,6-dihydropyrimidine-5-carbonitrile] | 77.3 ± 4.3 | 35.9 ± 2.2 | 31.2 ± 2.2 | 22.2 ± 1.6 | – |
| Cc1cc(Sc2nc(-c3ccc(Cl)cc3)c(C#N)c(=O)[nH]2)n2ncnc2n1 [Compound 11b, 4-(4-Chlorophenyl)-2-((5-methyl-[1,2,4]triazolo[1,5-a]pyrimidin-7-yl)thio)-6-oxo-1,6-dihydropyrimidine-5-carbonitrile] | 56.2 ± 3 | 17.5 ± 1.4 | 12.6 ± 1 | 8.39 ± 0.6 | – |
| COc1ccc(NC(=O)Nc2nnc(Sc3cc(C)nc4ncnn34)s2)cc1 [Compound 9d, 1-(4-Methoxyphenyl)-3-(5-((5-methyl-[1,2,4]triazolo[1,5-a]pyrimidin-7-yl)thio)-1,3,4-thiadiazol-2-yl)urea] | > 100 | 82.4 ± 4.1 | > 100 | 92.4 ± 4.4 | – |
| Cc1cc(Sc2nnc(NC(=O)Nc3ccccc3)s2)n2ncnc2n1 [Compound 9a, 1-(5-((5-Methyl-[1,2,4]triazolo[1,5-a]pyrimidin-7-yl)thio)-1,3,4-thiadiazol-2-yl)-3-phenylurea] | 48.4 ± 2.6 | 25.2 ± 2 | 44.4 ± 2.6 | 37.2 ± 2.3 | – |
| Cc1cc(Sc2nc(-c3ccc(Br)cc3)c(C#N)c(=O)[nH]2)n2ncnc2n1 [Compound 11a, 4-(4-Bromophenyl)-2-((5-methyl-[1,2,4]triazolo[1,5-a]pyrimidin-7-yl)thio)-6-oxo-1,6-dihydropyrimidine-5-carbonitrile] | 75.9 ± 4.1 | 33.4 ± 2.3 | 41 ± 2.4 | 30.5 ± 2.1 | – |
| Cc1ccc(NC(=O)Nc2nnc(Sc3cc(C)nc4ncnn34)s2)cc1 [Compound 9c, 1-(5-((5-Methyl-[1,2,4]triazolo[1,5-a]pyrimidin-7-yl)thio)-1,3,4-thiadiazol-2-yl)-3-(p-tolyl)urea] | 18.1 ± 1.3 | 51.9 ± 2.8 | 58.5 ± 3.3 | 46.1 ± 2.5 | – |
| COc1ccc(-c2nc(Sc3cc(C)nc4ncnn34)[nH]c(=O)c2C#N)cc1 [Compound 11d, 4-(4-Methoxyphenyl)-2-((5-methyl-[1,2,4]triazolo[1,5-a]pyrimidin-7-yl)thio)-6-oxo-1,6-dihydropyrimidine-5-carbonitrile] | 71.2 ± 3.9 | 63.4 ± 3.6 | 47.9 ± 2.7 | 34.6 ± 2.3 | – |
| Cc1cc(Sc2nnc(-c3ccc([N+](=O)[O-])cc3)o2)n2ncnc2n1 [Compound 13c, 2-((5-Methyl-[1,2,4]triazolo[1,5-a]pyrimidin-7-yl)thio)-5-(4-nitrophenyl)-1,3,4-oxadiazole] | 38.6 ± 2.2 | 10.3 ± 0.9 | 6.1 ± 0.5 | 2.42 ± 0.1 | Cell cycle distribution G2-M (MCF-7 cells; DMSO control 18.18): 10.32%; Cell cycle distribution S (MCF-7 cells; DMSO control 24.83): 37.01%; Cell cycle distribution G0-G1 (MCF-7 cells; DMSO control 56.99): 52.67%; IC50 (HER-2): 0.078 µM; caspase-3 positive cells (caspase-3): 2.3 ± 0.3 cells; Increase of caspase-3 positive cells from the DMBA group (caspase-3; mouse, in vivo): 360%; Share of the control's apoptotic activity (caspase-3) (caspase-3; mouse, in vivo): about 51%; IC50 (aromatase (ARO)): 0.156 µM; IC50 (EGFR): 0.087 µM; Body weight at day 20 [4]: 30.6 g; Body weight at start [4]: 20.2 g; Reduction in final tumor volume compared to untreated DMBA group [5]: 62.5%; Final tumor volume [5]: about 0.9 mm^3; IC50 (TOP-II): 31.6 µM |
| COc1ccc(-c2nc(Sc3cc(C)nc4ncnn34)[nH]c(=O)c2C#N)cc1OC [Compound 11e, 4-(3,4-Dimethoxyphenyl)-2-((5-methyl-[1,2,4]triazolo[1,5-a]pyrimidin-7-yl)thio)-6-oxo-1,6-dihydropyrimidine-5-carbonitrile] | 60.3 ± 3.3 | 13.6 ± 1.1 | 8.89 ± 0.8 | 5.92 ± 0.3 | IC50 (HER-2): 0.116 µM; IC50 (aromatase (ARO)): 0.38 µM; IC50 (EGFR): 0.246 µM; IC50 (TOP-II): 36.7 µM |
| Cc1ccc(-c2nnc(Sc3cc(C)nc4ncnn34)o2)cc1 [Compound 13b, 2-((5-Methyl-[1,2,4]triazolo[1,5-a]pyrimidin-7-yl)thio)-5-(p-tolyl)-1,3,4-oxadiazole] | 83.5 ± 4.5 | 39 ± 2.4 | 29.3 ± 2 | 27.8 ± 2 | – |
| Cc1ccc(-c2nc(Sc3cc(C)nc4ncnn34)[nH]c(=O)c2C#N)cc1 [Compound 11c, 2-((5-Methyl-[1,2,4]triazolo[1,5-a]pyrimidin-7-yl)thio)-6-oxo-4-(p-tolyl)-1,6-dihydropyrimidine-5-carbonitrile] | 45 ± 2.4 | 19.2 ± 1.6 | 21.5 ± 1.5 | 9.15 ± 0.7 | – |
| Cc1cc(Sc2nnc(NC(=O)Nc3ccc(Cl)cc3)s2)n2ncnc2n1 [Compound 9b, 1-(4-Chlorophenyl)-3-(5-((5-methyl-[1,2,4]triazolo[1,5-a]pyrimidin-7-yl)thio)-1,3,4-thiadiazol-2-yl)urea] | 64.7 ± 3.5 | 87.7 ± 4.4 | > 100 | > 100 | – |
| Cc1cc(Sc2nnc(-c3ccccc3)o2)n2ncnc2n1 [Compound 13a, 2-((5-Methyl-[1,2,4]triazolo[1,5-a]pyrimidin-7-yl)thio)-5-phenyl-1,3,4-oxadiazole] | 91.4 ± 4.9 | 23.6 ± 1.9 | 15 ± 1.2 | 18.6 ± 1.3 | – |
| Cc1cc(N2CCN(C(=O)CN3CCOCC3)CC2)n2ncnc2n1 [Compound 7e, 1-(4-(5-Methyl-[1,2,4]triazolo[1,5-a]pyrimidin-7-yl)piperazin-1-yl)-2-morpholinoethanone] | 26.3 ± 1.9 | 78.5 ± 4.2 | 88.4 ± 4.5 | 84.7 ± 4.1 | – |
| COc1cccc2c1C(=O)c1c(O)c3c(c(O)c1C2=O)C[C@@](O)(C(=O)CO)C[C@@H]3O[C@H]1C[C@H](N)[C@H](O)[C@H](C)O1 [DOX, Doxorubicin, reference compound] | – | – | – | – | caspase-3 positive cells (caspase-3): 4.0 ± 0.2 cells; Decrease of caspase-3 positive cells from the control (caspase-3; mouse, in vivo): 11%; Increase of caspase-3 positive cells from the DMBA group (caspase-3; mouse, in vivo): 700%; Body weight at day 20 [4]: 31.8 g; Body weight at start [4]: 19.8 g; Reduction in final tumor volume compared to untreated DMBA group [5]: 75%; Final tumor volume [5]: approximately 0.6 mm^3; IC50 (TOP-II): 34 µM |
| Cc1cc(Sc2nnc(-c3ccc(Br)cc3)o2)n2ncnc2n1 [Compound 13e, 2-(4-Bromophenyl)-5-((5-methyl-[1,2,4]triazolo[1,5-a]pyrimidin-7-yl)thio)-1,3,4-oxadiazole] | > 100 | 57.4 ± 3.2 | 55.1 ± 3.5 | 42.6 ± 2.4 | – |
| Cc1cc(Sc2nnc(-c3ccc(Cl)cc3)o2)n2ncnc2n1 [Compound 13d, 2-(4-Chlorophenyl)-5-((5-methyl-[1,2,4]triazolo[1,5-a]pyrimidin-7-yl)thio)-1,3,4-oxadiazole] | 66.1 ± 3.8 | 42.9 ± 2.5 | 24.8 ± 1.8 | 14.2 ± 1.1 | – |
